# Key:
# Format in all cases: cell-based, Sprague-Dawley rats
# Akt = test: Western blot of Akt phosphorylation in VSMC induced by PDGF-BB; details: for decrease of Akt phosphorylation: 30 μM LAB, 20 mM NAC, 40 μM LY294002, 1 h, then PDGF-BB 10 min, FIG. 4C
# Method: (§1) VSMC was washed with PBS and then dissolved in lysis buffer (25 mM Tris HCl, pH 7.4, 25 mM NaCl, 25 mM NaF, 25 mM sodium pyrophosphate, 1 mM sodium vanadate, 2.5 mM EDTA, 2.5 mM EGTA, 0.05% (wt/vol) Triton X-100, 0.5% (wt/vol) SDS, 0.5% (wt/vol) deoxycholate, 0.5% (wt/vol) Nonidet P-40, […], and 1 mM PMSF). The cells were collected and centrifuged at 13,000 rpm for 15 min and the protein concentration of the resulting supernatant was measured by Bradford assay. The proteins were denatured and were subjected to SDS-PAGE and then blotted onto nitrocellulose membranes. The membranes were placed in 5% (w/v) non-fat dry milk in TBS with 0.1% Tween20 (TBS-T) and then placed at room temperature for 3 hrs. The blots were placed at 4° C. along with anti-ERK1/2 or anti-Akt antibodies (Cell signaling Technologh, Berely. Mass., USA) for 16 hrs. The membranes were washed 4 times with TBS-T, added with anti-rabbit IgG antibody conjugated with horseradish peroxidase (1:2,000 diluent) and then placed at room temperature for 1 hr. The immunoreactive bands detected by ECL reagents were developed by Hyperfilm-ECL (Amersham Life Science, Little Chalfont, UK). The bands showing positive responses were quantitated by densitometry and then compared with that of control.
# (§2) In FIG. 1B, it is shown that both U0126 (20 μM) and LY294002 (40 μM) inhibited activities of LDH and MTT induced by PDGF-BB. As a way to investigate the signal transduction pathway involved in VSMC proliferation induced by PDGF-BB, an experiment was conducted to examine whether PDGF-BB activates a relatively lower signal transduction pathway such as ERK1/2 and Akt.
# ERK1/2 = test: Western blot of ERK1/2 phosphorylation in VSMC induced by PDGF-BB
# Method: as §1, §2
# [1] = system: vascular smooth muscle cells; test: VSMC proliferation induced by PDGF-BB (LDH and MTT assays); details: data not shown
# Text: Vascular smooth muscle cells ('VSMC' hereinafter) were separated from thoracic aorta of a Sprague-Dawley weighted about 100-150 g by using collagenase digestion method and then cultured them according to the method disclosed in previous studies [[…], et al. Role of p44/p42 MAP kinase in the age-dependent increase in vascular smooth muscle cell proliferation and neointimal formation. Arterioscler Thromb Vasc Biol. Feb. 1 2003; 23(2):204-210.; Hamaguchi A, Kim S, Izumi Y, et al. Contribution of extracellular signal-regulated kinase to angiotensin II-induced transforming growth factor-beta1 expression in vascular smooth muscle cells. Hypertension. July 1999; 34(1):126-131]. […] The VSMC was treated in a culture medium not containing serum for 24 hrs prior to treatment with PDGF-BB, and the reaction according to the presence or absence of PDGF-BB was analyzed after pretreating with LAB or other reagents. […] The cells were then washed twice with PBS, lysed by using 0.5% Triton-X100, and then the activity of lactate dehydronase (LDH) was measured by using CytoTox-ONETM assay kit (Promega, Madison, Wis., USA) with fluorescence at […]. […]
# [2] = system: intracellular reactive oxygen species; test: Intracellular reactive oxygen species in VSMC (DCF fluorescence); details: PDGF-BB 10 ng/mL vs control
# Method: The amount of reactive oxygen species in cells was measured as described in the previous report [Hamaguchi A, Kim S, Izumi Y, et al. Contribution of extracellular signal-regulated kinase to angiotensin II-induced transforming growth factor-beta1 expression in vascular smooth muscle cells. Hypertension. July 1999; 34(1):126-131]. VSMC was cultured in a culture medium without serum for 24 hrs to stop cell proliferation and then pretreated with LAB with various concentrations of 1, 5, 10, 20, 30 μM for 1 hr. The cells were treated with either 10 ng/mL of PDGF-BB for 10 min or with 100 μM H2O2 for 1 min and then cultured in the presence of 5-(and-6)-chloromethyl-2′,7′-dichlorohydrofluorescein diacetate(CM-H2DCF-DA: Molecular Probes Inc., Eurogene, Oreg., USA) in the dark room for 10 min and cultured cells and generation of reactive oxygen species were observed by using fluorescent microscope.
# First, the amount of intracellular reactive oxygen species generated by PDGF-BB was measured by using peroxide-sensitive fluorophore DCF. As shown in FIG. 3A (B-1), the amount of intracellular reactive oxygen species generated by PDGF-BB evaluated with DCF fluorescence was 2.7 times greater. […] In this experiment, LAB was treated with PDGF-BB for 10 min. When LAB was pretreated, the amount of DCF fluorescence was decreased as compared to when it was treated only with PDGF-BB [FIG. 3A(A)]. […] Further, LAB decreased the activity of hydrogen peroxide, which increases the generation of intracellular reactive oxygen species, in proportion to its concentration (FIG. 3A(C)).
# [3] = system: vascular smooth muscle cells; test: VSMC migration induced by PDGF-BB (modified Boyden chamber); details: PDGF-BB 10 ng/mL as chemoattractant, 16 hrs
# Method: The migration of VSMC with 8 μm of pores was measured by using modified Boyden chamber method [Brown C, Pan X, Hassid A. Nitric oxide and C-type atrial natriuretic peptide stimulate primary aortic smooth muscle cell migration via a cGMP-dependent mechanism: relationship to microfilament dissociation and altered cell morphology. Circ Res. Apr. 2 1999; 84(6):655-667], which utilizes collagen-coated transwell tissue culture inserts consisting of polycarbonate membrane. 3.0×10^6 cells/mL of the above vascular smooth muscle cells were allowed to float in a culture medium without serum, treated with LAB with various concentrations and then cultured at 37° C. for 30 min. Then, the cells were treated with either 0.5 mL DMEM without serum or 0.5 mL DMEM without serum along with PDGF-BB 10 ng/mL and then placed in the lower part of a chamber. 100 μL of the folating materials of the above cells (final 3.0×10^5 cells/well) was added to the upper part of the chamber and cultured at 37° C. for 16 hrs. The cells were then fixed, dyed with hematoxylin, and filters were dried and developed.
# It is known that […] plays an important role in proliferation of VSMC as well as development of atherosclerosis. To investigate whether LAB decreases the migration of VSMC induced by PDGF-BB, an experiment was performed as follows by using the aforementioned modified Boyden chamber method.
molecule,measurement,setting,value
"O=c1cc(N2CCOCC2)oc2c(-c3ccccc3)cccc12 [LY294002, (2-(4-morpholinyl)-8-phenyl)-4H-1-benzopyran-4-one, reference compound]",decrease of Akt phosphorylation,Akt,3.5 folds
"CC(=O)N[C@@H](CS)C(=O)O [NAC, N-acetylcysteine, reference compound]",decrease of Akt phosphorylation,Akt,3.4 folds
same,decrease of ERK1/2 phosphorylation,"ERK1/2; 30 μM LAB, 20 mM NAC, 1 h, then PDGF-BB 10 min, FIG. 5C",0.6 fold
"Oc1ccc(-c2nc(-c3ccncc3)c(-c3ccc(F)cc3)[nH]2)cc1 [SB202190, reference compound]",inhibitory activity against VSMC proliferation induced by PDGF-BB,[1],no distinct inhibitory activity
"PDGF-BB: platelet-derived growth factor (Sigma-Aldrich), stimulus of VSMC proliferation and migration [reference compound]","amount of intracellular reactive oxygen species (DCF fluorescence), increase",[2],2.7 times
same,increase of Akt activity,"Akt; treated with PDGF-BB 10 ng/mL, FIG. 4A",7 folds
same,increase of VSMC migration,[3],about 60%
same,increase of ERK1/2 activity,"ERK1/2; treated with PDGF-BB 10 ng/mL, FIG. 5A",11 folds
